According to PubChem BioAssay (NCI):
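Five compound concentrations were applied to cells in 96-well plates for 48 hours; endpoints were derived by simple linear interpolation of the resulting dose-response curve. The concentration for 50% growth inhibition is given as GI50. TGI denotes the concentration required for complete inhibition of growth.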

Assays:
Test in all cases: NCI tumour cell line growth inhibition, 48 h
[1] = system: SR leukemia
[2] = system: MDA-MB-435
[3] = system: SK-OV-3 ovarian
[4] = system: NCI/ADR-RES ovarian
[5] = system: SF-268 CNS
[6] = system: HS 578T breast
[7] = system: MDA-MB-231 breast
[8] = system: SF-295 CNS
[9] = system: U251 CNS
[10] = system: PC-3 prostate
[11] = system: NCI-H226 lung
[12] = system: NCI-H522 lung
[13] = system: RPMI-8226 leukemia
[14] = system: SNB-75 CNS
[15] = system: OVCAR-4 ovarian
[16] = system: NCI-H460 lung
[17] = system: CAKI-1 renal
[18] = system: HL-60(TB) leukemia
[19] = system: 786-0 renal
[20] = system: DU-145 prostate
[21] = system: NCI-H23 lung
[22] = system: EKVX NSCLC
[23] = system: SN12C renal
[24] = system: OVCAR-8 ovarian
[25] = system: SK-MEL-28 melanoma
[26] = system: KM12 colon
[27] = system: OVCAR-3 ovarian
[28] = system: LOX IMVI melanoma
[29] = system: SK-MEL-5 melanoma
[30] = system: SF-539 CNS
[31] = system: HCT-116 colon
[32] = system: UACC-62 melanoma
[33] = system: HCC-2998 colon
[34] = system: BT-549 breast
[35] = system: A498 renal
[36] = system: K-562 leukemia
[37] = system: HOP-62 NSCLC
[38] = system: IGROV1 ovarian
[39] = system: SW-620 colon
[40] = system: M14 melanoma
[41] = system: MOLT-4 leukemia
[42] = system: T-47D breast
[43] = system: HCT-15 colon
[44] = system: A549 NSCLC
[45] = system: OVCAR-5 ovarian
[46] = system: SNB-19 CNS
[47] = system: UO-31 renal
[48] = system: MCF7 breast
[49] = system: HOP-92 NSCLC
[50] = system: RXF 393 renal
[51] = system: ACHN renal
[52] = system: CCRF-CEM leukemia
[53] = system: SK-MEL-2 melanoma

Cc1ccc(S(=O)(=O)c2nc(-c3ccc(F)cc3)oc2S(C)(=O)=O)cc1
GI50 [1]: 1060 nM | GI50 [2]: 13.7 µM | TGI [2]: > 100 µM | GI50 [3]: > 93.5 µM | TGI [3]: > 100 µM | GI50 [4]: > 31.8 µM | TGI [4]: > 100 µM | GI50 [5]: > 35 µM | TGI [5]: > 100 µM | TGI [6]: > 52.9 µM | GI50 [7]: > 100 µM | TGI [7]: > 100 µM | GI50 [8]: > 100 µM | TGI [8]: > 100 µM | GI50 [9]: 16.9 µM | TGI [9]: > 100 µM | GI50 [10]: > 21.9 µM | TGI [10]: > 100 µM | GI50 [11]: > 20.2 µM | TGI [11]: > 100 µM | GI50 [12]: 2270 nM | GI50 [13]: > 100 µM | TGI [13]: > 100 µM | GI50 [14]: > 23.5 µM | TGI [14]: > 100 µM | GI50 [15]: > 100 µM | TGI [15]: > 100 µM | GI50 [16]: > 100 µM | TGI [16]: > 100 µM | GI50 [17]: 4.83 µM | TGI [17]: > 100 µM | GI50 [18]: 1650 nM | TGI [18]: 5.57 µM | GI50 [19]: > 100 µM | TGI [19]: > 100 µM | GI50 [20]: > 100 µM | TGI [20]: > 100 µM | GI50 [21]: 3.13 µM | TGI [21]: > 100 µM | GI50 [22]: > 100 µM | TGI [22]: > 100 µM | GI50 [23]: 8.51 µM | TGI [23]: > 100 µM | GI50 [24]: 6.88 µM | TGI [24]: > 100 µM | GI50 [25]: > 100 µM | TGI [25]: > 100 µM | GI50 [26]: > 100 µM | TGI [26]: > 100 µM | GI50 [27]: > 100 µM | TGI [27]: > 100 µM | GI50 [28]: 2040 nM | GI50 [29]: > 100 µM | TGI [29]: > 100 µM | GI50 [30]: > 100 µM | TGI [30]: > 100 µM | GI50 [31]: 1530 nM | TGI [31]: 2940 nM | TGI [32]: > 100 µM | GI50 [33]: > 100 µM | TGI [33]: > 100 µM | GI50 [34]: 14.1 µM | TGI [34]: > 100 µM | GI50 [35]: > 100 µM | TGI [35]: > 100 µM | GI50 [36]: 2940 nM | TGI [36]: > 100 µM | GI50 [37]: > 100 µM | TGI [37]: > 100 µM | GI50 [38]: > 100 µM | TGI [38]: > 100 µM | GI50 [39]: 2400 nM | GI50 [40]: > 100 µM | TGI [40]: > 100 µM | GI50 [41]: 4.61 µM | TGI [41]: > 100 µM | GI50 [42]: 1730 nM | TGI [42]: 3.67 µM | GI50 [43]: 3.95 µM | TGI [43]: > 100 µM | GI50 [44]: > 100 µM | TGI [44]: > 100 µM | GI50 [45]: > 100 µM | TGI [45]: > 100 µM | GI50 [46]: > 77.6 µM | TGI [46]: > 100 µM | GI50 [47]: > 100 µM | TGI [47]: > 100 µM | GI50 [48]: 3.78 µM | TGI [48]: > 100 µM | GI50 [49]: 6.69 µM | TGI [49]: > 100 µM | GI50 [50]: 5.16 µM | TGI [50]: > 100 µM | GI50 [51]: 1740 nM | TGI [51]: 3.13 µM | GI50 [52]: 2920 nM | TGI [52]: > 100 µM | GI50 [53]: > 21 µM | TGI [53]: > 100 µM
